Tests used:
Jurkat-D3B cells = experiment: SDF-1α induced migration of Jurkat-D3B cells expressing sstr2; type: cell-based, human
Description: Methods: Total mRNA was prepared from Panc-1 cells (a human pancreas cell line which is well known to express high levels of sstr2) using the RNAqueous 4PCR kit (Ambion, Cat code #1914) in accordance with the manufacturer's instructions. The mRNA was then reverse transcribed (using the RETROscript kit; Ambio) to yield a cDNA preparation. A full length cDNA of the sstr2 gene was then obtained by PCR (using a Peltier PTC-200 thermal cycler using the following cycle times and conditions: 94° C. for 2 min, followed by 30 cycles of 94° C., for 30 sec, 55° C. for 30 sec, 72° C. for 1 min and finally 72° C. for 10 min), and isolated by preparative gel electrophoresis. The sequence of the sstr2 cDNA was confirmed by sequencing. The sstr2 cDNA was treated with EcoRI and Xhol to generate sticky ends, which allowed directional cloning into the polylinker of the plasmid pcDNA3.1+ (Invitrogen) followed by ligation (100 ligation reactions were run with 400 T4 DNA ligase (New England Biolabs) and the maximal amounts of DNA with an insert:plasmid ratio of 3:1 in ligase buffer incubated overnight at 13° C.). […]
A number of individual cell lines were obtained in this way, which expressed significant levels of sstr2 on the cell surface, detected by flow cytometry using the human-sstr2 antibody (Sigma, 50694; see Example 3 for details of the flow cytometry protocol used). […]

Jurkat T cells = experiment: SDF-1α induced migration of parental Jurkat T cells; type: cell-based, human
Description: Results: The level of the SDF-1α, receptor CXCR4 was similar on Jurkat-D3B and the parental Jurkat T cell line. Furthermore, the Jurkat-D3B cells responded to SDF-1α in a Transwell® chemotaxis assay (see Example 1 for the methodology employed) over a similar concentration range to the parental cell line.
Jurkat T cells and Jurkat-D3B cells were induced to migrate in response to 100 ng/ml SDF-1α (R&D systems; the concentration of SDF-1α which induced maximal cell migration in both lines). The BSCI BN83250 was then added at various concentrations between 0 nM and 1000 nM (each in triplicate) to both the upper and lower compartments (at the same concentration in each compartment, so as not to create a gradient of BSCI concentration). DMSO (1% final concentration) was used as the vehicle, and was present in all wells at equal concentration.

Row | Molecule | Inhibition of Jurkat-D3B migration, in words (Jurkat-D3B cells) | Inhibition of SDF-1α induced migration of Jurkat T cells, in words (Jurkat T cells)
1 | CC(C)(C)C(=O)N[C@H]1CCCNC1=O [Valerolactam, (S)-3-(2′,2′-dimethylpropionoylamino)-tetrahydropyridin-2-one] | sensitive to inhibition | 
2 | (S)-3-(2′,2′-dimethyldodecanoyl)amino-caprolactam [BN83250] |  | little or no effect

Source: patent publication US20120053076A1, “METHODS FOR IDENTIFICATION” (Cambridge Enterprise Limited, priority 2009, published 2012)
